Common to all, as to test: NCI tumour cell line growth inhibition, 48 h
Test [1] concerns 786-0 renal.
Test [2] deals with CCRF-CEM leukemia.
For test [3], the system named is COLO 205 colon.
Test [4] concerns HOP-92 NSCLC.
The test system of test [5] is K-562 leukemia.
Test [6] deals with MDA-N.
For test [7], the system named is OVCAR-3 ovarian.
In test [8] the test system is RXF 393 renal.
The subject of test [9] is SK-MEL-2 melanoma.
Test [10] relates to SNB-75 CNS.
Test [11] deals with UACC-257 melanoma.

SMILES strings stand for the structures.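 Where inhibition never reached the appropriate level, the endpoint shown equals the highest concentration tested. Otherwise, values were interpolated linearly from a five-concentration, 48-hour dose response in 96-well plates. The concentration for full growth arrest is given as TGI.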

For the compound `COc1ccc(C(C)NNC(=O)c2ccncc2)c(OC)c1` (configuration not stated), the TGI in test [1], in test [2], in [3], in [4], in [5] and in test [6] was more than 100 µM throughout. For the same compound, the TGI in test [7], in [8], in [9], in test [10] and in test [11] was more than 100 µM throughout.
Turning to `O=C1N=c2ccccc2=C1c1c(O)[nH]c2ccccc12`, the TGI in test [1] was 21.6 µM; in test [2], more than 100 µM; in [3], more than 100 µM; in [4], 81.1 µM; in [5] it was more than 100 µM; in test [6], more than 100 µM. Besides, the TGI in test [7] was 41.1 µM; in test [8], 16.3 µM; in test [9], 58.9 µM; in [10], 35 µM; in test [11], more than 100 µM.
As to `CC1(CCCO)CCCCCC(C)(CCCO)C1=O` (configuration not stated), the TGI in test [1], in test [2], in [3], in [4], in test [5] and in [6] was more than 100 µM in each case. Besides, the TGI in [7], in test [8], in [9], in [10] and in test [11] was more than 100 µM each time.
Consider `CCC(=O)NC(Nc1cccc(F)c1C)(C(F)(F)F)C(F)(F)F`, for which the TGI in test [1], in test [2], in test [3], in [4], in test [5] and in test [6] was more than 100 µM throughout. Moreover, the TGI in test [7] was more than 100 µM; in test [8], 80.7 µM; in test [9], more than 100 µM; in [10] it was more than 100 µM; in test [11], more than 100 µM.
`C[C@]12CC[C@H](O)CC1=CC[C@@H]1[C@@H]2CC[C@]2(C)C(=O)[C@@H](N3CCOCC3)C[C@@H]12`: the TGI in [1], in test [2], in test [3], in test [4], in [5] and in [6] was more than 100 µM throughout. The TGI in test [7] is more than 100 µM; in test [8], more than 100 µM; in test [9] it was more than 100 µM; in test [10] it was 99.2 µM; in test [11] it was more than 100 µM.
As for `S=C(NCc1ccccc1)c1nc[nH]c1C(=S)NCc1ccccc1`, the TGI in [1] came out at 18.8 µM; in test [2] it was 12.1 µM; in test [3] it was 12.9 µM; in test [4], 12.3 µM; in test [5], 29.7 µM; in test [6], 23 µM. Also, the TGI amounted to 18.8 µM in [7]; 24.9 µM in test [8]; 22.2 µM in test [9]; 19.5 µM in test [10]; 23.4 µM in [11].
Take `CN1C(=O)N/C(=C\c2ccc(S(=O)(=O)NN)cc2)C1=O`: the TGI in test [1], in test [2], in test [3], in test [4], in test [5] and in test [6] was more than 100 µM throughout. In addition, the TGI in test [7], in test [8], in test [9], in [10] and in [11] was more than 100 µM each time.
In the case of `C=CCNC1=C2C[C@@H](C)C[C@@H](OC)[C@H](OC(=O)CCCCN)[C@H](C)/C=C(\C)[C@@H](OC(N)=O)[C@H](OC)/C=C\C=C(/C)C(=O)NC(=CC1=O)C2=O`, the TGI is 26.5 µM in [1]; 56.4 µM in test [2]; 16.6 µM in [3]; 35.7 µM in test [4]; more than 100 µM in test [5]; 22 µM in [6]. Moreover, the TGI in [7] came to 7.66 µM; in test [8], 29.2 µM; in test [9], 9.98 µM; in [10], 15.2 µM; in test [11], 18.9 µM.
For `CC(C)C1OC23CCCCC2C(C#N)(C#N)C1(C#N)C(=N)O3` (configuration not stated), the TGI was 34.4 µM in test [1]; more than 100 µM in test [2]; 33.5 µM in test [3]; 35.1 µM in test [4]; more than 100 µM in [5]; 32.7 µM in test [6]. The TGI in [7] is 59.8 µM; in test [8] it was 46.4 µM; in [9], 76 µM; in test [10], more than 100 µM; in [11], 45.9 µM.
As to `Cc1cccc(-c2nc3ccc([N+](=O)[O-])cc3c(=O)o2)c1`, the TGI in test [1] is more than 100 µM; in test [2], 96.7 µM; in [3] it was more than 100 µM; in test [4], 93 µM; in [5], more than 100 µM; in test [6], more than 100 µM. Besides, the TGI in [7], in test [8], in test [9], in [10] and in test [11] was more than 100 µM in each case.
As to `CCOC(=O)C1=CC(C)(C(=O)OCC)Nc2c(nc(OC)n(C)c2=O)N1` (configuration not stated), the TGI in [1], in test [2], in test [3], in test [4], in test [5] and in test [6] was more than 10 µM in each case. For the same compound, the TGI in test [7], in [8], in [9], in [10] and in test [11] was more than 10 µM each time.
For `COc1ccc2nc3ccc(OC)cc3c(S(=O)CCCl)c2c1` (configuration not stated), the TGI is 3.34 µM in test [1]; more than 23.8 µM in [2]; 3.13 µM in test [3]; 10.8 µM in test [4]; more than 23.6 µM in [5]; 7.58 µM in test [6]. Moreover, the TGI in test [7] is 6.24 µM; in [8], 16.2 µM; in test [9], 35.3 µM; in test [10] it was 33.1 µM; in [11] it was 5.38 µM.

For the origin of these results see PubChem BioAssay (NCI).
